Where “and” joins values, the source holds several entries; their conditions need not be identical. Equal entries are not always repeated. One block for each molecule: values may come before it.
System: 349418-098-R-PDC complex spheroid growth
Test: Anticancer human tumor 349418-098-R-PDC patient-derived lung adenocarcinoma cell line growth inhibition [AhR]
Conditions: for viability, T/C: stronger effect = lower value
From the text: Multicellular complex tumor spheroid response to aryl hydrocarbon receptor antagonists in combination with a variety of drugs and investigational agents in selected tumor cell lines
The current study was undertaken to assess response to aryl hydrocarbon receptor antagonists in combination with standard-of-care drugs and investigational agents in solid tumor complex spheroid models. Complex spheroids include a stromal component modeled by human endothelial cells (HUVEC) and fibroblasts modeled by human mesenchymal stem cells (MSCs). The concentration ranges selected for each drug and investigational agent were based upon clinically achievable concentrations if the clinical Cmax of the agent was known.
Compounds. The drugs and investigational agents: BAY 2416964 (NSC825713), GNF351 (NSC835774), CH-223191 (NSC835775), CPI-455 (NSC825282), aza-TdCyd (NSC777586), decitabine (NSC127716), belinostat (NSC758774), entinostat (NSC756642), pevonedistat (NSC761192), tazemetostat (NSC777109), talazoparib (NSC765396), olaparib (NSC753686), selinexor (NSC780203), nedisertib (M3814, NSC802822), bortezomib (NSC756655), venetoclax (NSC766270), doxorubicin (NSC123127), elimusertib (BAY189344, NSC800525), ceralasertib (AZD6738, NSC777638), TAK-243 (NSC785004), alisertib (NSC759677), etoposide (NSC141540), topotecan (NSC609699), eribulin (NSC707389), gemcitabine (NSC613327), carboplatin (NSC241240), cisplatin (NSC119875), and SN-38 (NSC673596) were obtained from the National Cancer Institute (NCI) Developmental Therapeutics Program Chemical Repository (32). The FDA-approved anticancer drug set is available from the Developmental Therapeutics Program at https://dtp.cancer.gov/organization/dscb/obtaining/available plates.htm. […] The stock solutions were prepared in dimethyl sulfoxide (DMSO, Sigma-Aldrich, St. Louis, MO, cat. D2650), except for the platinum compounds which were prepared in saline (Quality Biological, Gaithersburg, MD, cat. 114-055-101), at 800-fold the tested concentration and stored at -70 degrees C prior to their use. All drugs and investigational agents were tested over a range starting from a high concentration at or near the clinical Cmax and decreasing in half-log increments. If the clinical Cmax for an agent had not been determined, the highest concentration tested was 10 microM (Table 1).
Cell Culture. All cells were maintained in an incubator at 37 degrees C and 5% CO2 with 95% humidity. The PDC lines were cultured according to standard operating procedures established by the NCI PDMR (https://pdmr.cancer.gov). Briefly, all PDCs were thawed and cultured in Matrigel-coated flasks prepared with a working solution of 1X Ham's F-12 nutrient mix, without supplementation (Invitrogen, Waltham, MA, cat. 11765054), 100 U/mL penicillin-streptomycin (Invitrogen, cat. 15140122), and 2.5% Matrigel (Corning Inc., Corning, NY, cat. 354248) for the first three passages. All PDCs were cultured in complete DMEM/F-12 media containing advanced DMEM/F-12 (Invitrogen, cat. 12634028), 4.9% defined fetal bovine serum, heat inactivated (HyClone Laboratories Inc., Logan, UT, cat. SH30070.03HI), 389 ng/mL hydrocortisone (Sigma-Aldrich, cat. H4001), 9.7 ng/mL human EGF recombinant protein (Invitrogen, cat. PHG0313), 23.4 microg/mL adenine (Sigma-Aldrich, cat. A2786), 97.3 U/mL penicillin-streptomycin (Invitrogen, cat. 15140122), 1.9 mM L-glutamine (Invitrogen, cat. 25030081), and 9.7 microM Y-27632 dihydrochloride (Tocris Bioscience, Bristol, United Kingdom, cat. 1254). The PDCs were cultured in complete DMEM/F12 media without 10 microM Y-27632 dihydrochloride for at least two passages prior to the screen. The established cell lines NCI-H1341 and […] were cultured in DMEM/F-12, HEPES (Invitrogen, cat. 11330032), 5% defined fetal bovine serum (HyClone Laboratories Inc., cat. SH30070.03), ITS premix universal culture supplement [insulin (5 microg/mL), transferrin (5 microg/mL), and selenious acid (5 ng/mL)] […]

[1] = curve of first compound, second compound 0.1 µM
[2] = curve of first compound, second compound 0.316 µM
[3] = curve of first compound, second compound 1 µM
[4] = curve of first compound, second compound 3.16 µM
[5] = curve of first compound, second compound 10 µM
[6] = second compound 0.1 µM, first compound 0.0316 µM
[7] = second compound 0.1 µM, first compound 0.1 µM
[8] = second compound 0.316 µM, first compound 0.0316 µM
[9] = second compound 0.316 µM, first compound 0.1 µM
[10] = second compound 1 µM, first compound 0.0316 µM
[11] = second compound 1 µM, first compound 0.1 µM
[12] = second compound 3.16 µM, first compound 0.0316 µM
[13] = second compound 3.16 µM, first compound 0.1 µM
[14] = second compound 10 µM, first compound 0.0316 µM
[15] = second compound 10 µM, first compound 0.1 µM
[16] = second compound 0.1 µM, first compound 0.316 µM
[17] = second compound 0.1 µM, first compound 1 µM
[18] = second compound 0.1 µM, first compound 3.16 µM
[19] = second compound 0.1 µM, first compound 10 µM
[20] = second compound 0.316 µM, first compound 0.316 µM
[21] = second compound 0.316 µM, first compound 1 µM
[22] = second compound 0.316 µM, first compound 3.16 µM
[23] = second compound 0.316 µM, first compound 10 µM
[24] = second compound 1 µM, first compound 0.316 µM
[25] = second compound 1 µM, first compound 1 µM
[26] = second compound 1 µM, first compound 3.16 µM
[27] = second compound 1 µM, first compound 10 µM
[28] = second compound 3.16 µM, first compound 0.316 µM
[29] = second compound 3.16 µM, first compound 1 µM
[30] = second compound 3.16 µM, first compound 3.16 µM
[31] = second compound 3.16 µM, first compound 10 µM
[32] = second compound 10 µM, first compound 0.316 µM
[33] = second compound 10 µM, first compound 1 µM
[34] = second compound 10 µM, first compound 3.16 µM
[35] = second compound 10 µM, first compound 10 µM
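Note: spheroids exposed to agents for seven days before luminescence viability read.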
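Throughout, for viability, T/C: spheroids also contain HUVEC endothelial cells and human MSC stroma.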

IC50 [1]: > 100 nM
IC50 [2]: > 100 nM
IC50 [3]: > 100 nM
IC50 [4]: < 0.316 nM
IC50 [5]: < 0.316 nM
SMILES: Cn1ncnc1C1c2n[nH]c(=O)c3cc(F)cc(c23)NC1c1ccc(F)cc1 (centres undefined) + Cc1cncc(-c2nc(NCCc3c[nH]c4ccccc34)c3ncn(C(C)C)c3n2)c1
viability, T/C (second compound 0.1 µM, first compound 0.000316 µM): 94.4%
viability, T/C (second compound 0.1 µM, first compound 0.001 µM): 93.9%
viability, T/C (second compound 0.1 µM, first compound 0.00316 µM): 92.2%
viability, T/C (second compound 0.1 µM, first compound 0.01 µM): 87.8%
viability, T/C [6]: 82.5%
viability, T/C [7]: 80.6%
viability, T/C (second compound 0.316 µM, first compound 0.000316 µM): 90.1%
viability, T/C (second compound 0.316 µM, first compound 0.001 µM): 98%
viability, T/C (second compound 0.316 µM, first compound 0.00316 µM): 85.7%
viability, T/C (second compound 0.316 µM, first compound 0.01 µM): 88%
viability, T/C [8]: 85.6%
viability, T/C [9]: 78.5%
viability, T/C (second compound 1 µM, first compound 0.000316 µM): 86.7%
viability, T/C (second compound 1 µM, first compound 0.001 µM): 81.6%
viability, T/C (second compound 1 µM, first compound 0.00316 µM): 89.8%
viability, T/C (second compound 1 µM, first compound 0.01 µM): 78.2%
viability, T/C [10]: 78.8%
viability, T/C [11]: 78.4%
viability, T/C (second compound 3.16 µM, first compound 0.000316 µM): 17.9%
viability, T/C (second compound 3.16 µM, first compound 0.001 µM): 23.4%
viability, T/C (second compound 3.16 µM, first compound 0.00316 µM): 23.8%
viability, T/C (second compound 3.16 µM, first compound 0.01 µM): 19.4%
viability, T/C [12]: 25.5%
viability, T/C [13]: 21.6%
viability, T/C (second compound 10 µM, first compound 0.000316 µM): 2.6%
viability, T/C (second compound 10 µM, first compound 0.001 µM): 2.33%
viability, T/C (second compound 10 µM, first compound 0.00316 µM): 3.01%
viability, T/C (second compound 10 µM, first compound 0.01 µM): 2.42%
viability, T/C [14]: 2.36%
viability, T/C [15]: 2.64%

IC50 (curve of compound): > 10000 nM
SMILES: CC(C)c1c(-c2ccccc2)nc2c(C#N)c[nH]n2c1=O
viability, T/C (compound 0.0316 µM): 112% and 92.6% and 89.1%
viability, T/C (compound 0.1 µM): 106% and 83.2% and 76.1%
viability, T/C (compound 0.316 µM): 100% and 78.1% and 72%
viability, T/C (compound 1 µM): 103% and 77.8% and 82.3%
viability, T/C (compound 3.16 µM): 108% and 86.8% and 85.3%
viability, T/C (compound 10 µM): 91.6% and 86.8% and 79.7%

IC50 [1]: > 10000 nM
IC50 [2]: > 10000 nM
IC50 [3]: > 10000 nM
IC50 [4]: < 31.6 nM
IC50 [5]: < 31.6 nM
SMILES: CC1(C)CCC(CN2CCN(c3ccc(C(=O)NS(=O)(=O)c4ccc(NCC5CCOCC5)c([N+](=O)[O-])c4)c(Oc4cnc5[nH]ccc5c4)c3)CC2)=C(c2ccc(Cl)cc2)C1 + Cc1cncc(-c2nc(NCCc3c[nH]c4ccccc34)c3ncn(C(C)C)c3n2)c1
viability, T/C [6]: 102%
viability, T/C [7]: 108%
viability, T/C [16]: 96.2%
viability, T/C [17]: 92.4%
viability, T/C [18]: 90.2%
viability, T/C [19]: 88.4%
viability, T/C [8]: 99.3%
viability, T/C [9]: 99.8%
viability, T/C [20]: 103%
viability, T/C [21]: 87.7%
viability, T/C [22]: 90.8%
viability, T/C [23]: 94.1%
viability, T/C [10]: 104%
viability, T/C [11]: 98.5%
viability, T/C [24]: 91.3%
viability, T/C [25]: 81.4%
viability, T/C [26]: 83%
viability, T/C [27]: 86.4%
viability, T/C [12]: 22.3%
viability, T/C [13]: 24.5%
viability, T/C [28]: 23.2%
viability, T/C [29]: 28.6%
viability, T/C [30]: 27.3%
viability, T/C [31]: 26.6%
viability, T/C [14]: 3.27%
viability, T/C [15]: 2.85%
viability, T/C [32]: 2.92%
viability, T/C [33]: 3.37%
viability, T/C [34]: 3.16%
viability, T/C [35]: 3.69%

IC50 (curve of compound): > 3000 nM
SMILES: CCN(c1cc(-c2ccc(CN3CCOCC3)cc2)cc(C(=O)NCc2c(C)cc(C)[nH]c2=O)c1C)C1CCOCC1
viability, T/C (compound 0.00949 µM): 111% and 107% and 122%
viability, T/C (compound 0.03 µM): 109% and 98.9% and 71.2%
viability, T/C (compound 0.0949 µM): 105% and 81.2% and 91.1%
viability, T/C (compound 0.3 µM): 108% and 64.7% and 101%
viability, T/C (compound 0.949 µM): 99.1% and 66.3% and 69.3%
viability, T/C (compound 3 µM): 94% and 69.9% and 88.5%

IC50 [1]: 727 nM
IC50 [2]: 607 nM
IC50 [3]: 503 nM
IC50 [4]: 269 nM
IC50 [5]: 136 nM
SMILES: COc1cc(C2c3cc4c(cc3C(OC3OC5COC(C)OC5C(O)C3O)C3COC(=O)C23)OCO4)cc(OC)c1O (centres undefined) + CC(CO)NC(=O)c1cc(-c2ccc(Cl)cc2)nn(-c2cnn(C)c2)c1=O
viability, T/C [6]: 103%
viability, T/C [7]: 98%
viability, T/C [16]: 91.1%
viability, T/C [17]: 34.1%
viability, T/C [18]: 18%
viability, T/C [19]: 12.9%
viability, T/C [8]: 108%
viability, T/C [9]: 109%
viability, T/C [20]: 72.4%
viability, T/C [21]: 32.6%
viability, T/C [22]: 16.2%
viability, T/C [23]: 11.3%
viability, T/C [10]: 102%
viability, T/C [11]: 90.2%
viability, T/C [24]: 64.5%
viability, T/C [25]: 29%
viability, T/C [26]: 18.7%
viability, T/C [27]: 14.6%
viability, T/C [12]: 78.8%
viability, T/C [13]: 104%
viability, T/C [28]: 43.2%
viability, T/C [29]: 25.1%
viability, T/C [30]: 16.6%
viability, T/C [31]: 13.5%
viability, T/C [14]: 59%
viability, T/C [15]: 56.4%
viability, T/C [32]: 36%
viability, T/C [33]: 22.3%
viability, T/C [34]: 14.4%
viability, T/C [35]: 14.1%
